Data from patent US12570642B2, “GLP-IR modulating compounds” (Gilead Sciences, Inc., priority 2021, dated 2026).
pEC50: −log10 of the molar value.

Molecular target: GLP-1R (Homo sapiens, UniProt P43220)
Assay: GLP-1R Activation - cAMP Assay
Assay type: cell-based
Conditions: cAMP increase in CHO cells stably expressing GLP-1R; each compound run on one of the two cAMP assays (Assay 1 or Assay 2, not specified)
Method in brief: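 CHO cells stably expressing GLP-1R, plated at 1,000 cells/well overnight, then equilibrated 1 h in HBSS with 20 mM Hepes and 0.1% BSA. Agonist added as 10-point dose response for 30 min at 37 °C. cAMP measured by HTRF (Cisbio Gs Dynamic kit); EC50 from sigmoidal fit.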

Sequence of GLP-1R (P43220 24-463): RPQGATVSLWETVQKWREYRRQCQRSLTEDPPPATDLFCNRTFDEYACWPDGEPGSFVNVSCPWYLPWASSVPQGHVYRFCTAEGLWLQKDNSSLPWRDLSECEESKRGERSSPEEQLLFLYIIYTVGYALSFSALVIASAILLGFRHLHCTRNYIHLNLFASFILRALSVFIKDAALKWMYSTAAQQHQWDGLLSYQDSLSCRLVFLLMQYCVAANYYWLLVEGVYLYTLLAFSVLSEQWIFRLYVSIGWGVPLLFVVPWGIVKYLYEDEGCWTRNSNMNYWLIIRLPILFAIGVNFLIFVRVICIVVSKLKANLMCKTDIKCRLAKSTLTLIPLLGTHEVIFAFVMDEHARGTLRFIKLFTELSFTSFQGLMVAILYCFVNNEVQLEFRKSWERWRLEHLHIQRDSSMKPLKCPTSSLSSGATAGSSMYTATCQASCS

Row | pEC50 | SMILES
1 | 9.90 | COCCn1c(Cc2c(F)cc(-c3ccc(F)c(OCc4ccc(-n5ccnn5)cc4)n3)c(F)c2F)nc2c(F)cc(C(=O)O)cc21 [Example 223, 2-(4-(6-((4-(1H-1,2,3-triazol-1-yl)benzyl)oxy)-5-fluoropyridin-2-yl)-2,3,6-trifluorobenzyl)-4-fluoro-1-(2-methoxyethyl)-1H-benzo[d]imidazole-6-carboxylic acid]
2 | 9.29 | N#Cc1ccc(COc2nc(-c3cc(F)c(Cc4nc5c(F)cc(C(=O)O)cc5n4C4COCC45CC5)cc3F)ccc2F)c(F)c1 (stereo not drawn) [Example 224, 2-(4-(6-((4-cyano-2-fluorobenzyl)oxy)-5-fluoropyridin-2-yl)-2,5-difluorobenzyl)-4-fluoro-1-(5-oxaspiro[2.4]heptan-7-yl)-1H-benzo[d]imidazole-6-carboxylic acid]
3 | 8.15 | COCCn1c(Cc2cc(C)c(-c3ccc(F)c(OCc4ccc(C#N)cc4F)n3)cc2Cl)nc2c(F)cc(C(=O)O)cc21 [Example 225, 2-(2-chloro-4-(6-((4-cyano-2-fluorobenzyl)oxy)-5-fluoropyridin-2-yl)-5-methylbenzyl)-4-fluoro-1-(2-methoxyethyl)-1H-benzo[d]imidazole-6-carboxylic acid]
4 | 10.66 | COCCn1c(Cc2c(F)cc(-c3cccc(OCc4cnc(-n5ccnn5)cc4Cl)n3)c(F)c2F)nc2c(F)cc(C(=O)O)cc21 [Example 226, 2-(4-(6-((4-chloro-6-(1H-1,2,3-triazol-1-yl)pyridin-3-yl)methoxy)pyridin-2-yl)-2,3,6-trifluorobenzyl)-4-fluoro-1-(2-methoxyethyl)-1H-benzo[d]imidazole-6-carboxylic acid]
5 | 8.32 | COCCn1c(Cc2cc(C)c(-c3cccc(OCc4ccc(C#N)cc4F)n3)cc2Cl)nc2c(F)cc(C(=O)O)cc21 [Example 227, 2-(2-chloro-4-(6-((4-cyano-2-fluorobenzyl)oxy)pyridin-2-yl)-5-methylbenzyl)-4-fluoro-1-(2-methoxyethyl)-1H-benzo[d]imidazole-6-carboxylic acid]
6 | 10.33 | CC1(C)COC[C@H]1n1c(Cc2cc(F)c(-c3ccc(F)c(OCc4ccc(Cl)cc4)n3)cc2F)nc2c(F)cc(C(=O)O)cc21 [Example 228, (S)-2-(4-(6-((4-chlorobenzyl)oxy)-5-fluoropyridin-2-yl)-2,5-difluorobenzyl)-1-(4,4-dimethyltetrahydrofuran-3-yl)-4-fluoro-1H-benzo[d]imidazole-6-carboxylic acid]
7 | 9.87 | CC1(C)COC[C@H]1n1c(Cc2c(F)cc(-c3ccnc(OCc4ccc(Cl)cc4)n3)c(F)c2F)nc2c(F)cc(C(=O)O)cc21 [Example 229, (S)-2-(4-(2-((4-chlorobenzyl)oxy)pyrimidin-4-yl)-2,3,6-trifluorobenzyl)-1-(4,4-dimethyltetrahydrofuran-3-yl)-4-fluoro-1H-benzo[d]imidazole-6-carboxylic acid]
8 | 10.47 | CC1(C)COC[C@H]1n1c(Cc2cc(F)c(-c3ccnc(OCc4ccc(Cl)cc4)n3)cc2F)nc2c(F)cc(C(=O)O)cc21 [Example 230, (S)-2-(4-(2-((4-chlorobenzyl)oxy)pyrimidin-4-yl)-2,5-difluorobenzyl)-1-(4,4-dimethyltetrahydrofuran-3-yl)-4-fluoro-1H-benzo[d]imidazole-6-carboxylic acid]
9 | 10.31 | CC1(C)COC[C@H]1n1c(Cc2cc(F)c(-c3ccnc(OCc4ccc(Cl)cc4)n3)cc2F)nc2ccc(C(=O)O)cc21 [Example 231, (S)-2-(4-(2-((4-chlorobenzyl)oxy)pyrimidin-4-yl)-2,5-difluorobenzyl)-1-(4,4-dimethyltetrahydrofuran-3-yl)-1H-benzo[d]imidazole-6-carboxylic acid]
10 | 9.93 | COCCn1c(Cc2c(F)cc(-c3ccc(F)c(OCc4ccc(C#N)cc4F)n3)c(F)c2F)nc2c(F)cc(C(=O)O)cc21 [Example 232, 2-(4-(6-((4-cyano-2-fluorobenzyl)oxy)-5-fluoropyridin-2-yl)-2,3,6-trifluorobenzyl)-4-fluoro-1-(2-methoxyethyl)-1H-benzo[d]imidazole-6-carboxylic acid]
11 | 9.72 | CC1(C)COC[C@H]1n1c(Cc2ccc(-c3ccc(F)c(OCc4ccc(-n5ccnn5)cc4F)n3)cc2F)nc2c(F)cc(C(=O)O)cc21 [Example 235, (S)-1-(4,4-dimethyltetrahydrofuran-3-yl)-4-fluoro-2-(2-fluoro-4-(5-fluoro-6-((2-fluoro-4-(1H-1,2,3-triazol-1-yl)benzyl)oxy)pyridin-2-yl)benzyl)-1H-benzo[d]imidazole-6-carboxylic acid]
12 | 9.69 | CC1(C)COC[C@H]1n1c(Cc2ccc(-c3ccc(F)c(OCc4ccc(-n5ccnn5)cc4F)n3)cc2F)nc2ccc(C(=O)O)cc21 [Example 236, (S)-1-(4,4-dimethyltetrahydrofuran-3-yl)-2-(2-fluoro-4-(5-fluoro-6-((2-fluoro-4-(1H-1,2,3-triazol-1-yl)benzyl)oxy)pyridin-2-yl)benzyl)-1H-benzo[d]imidazole-6-carboxylic acid]
13 | 9.28 | Cc1cnc(COc2cccc(-c3cc(F)c(Cc4nc5ccc(C(=O)O)cc5n4[C@@H]4COCC4(C)C)cc3F)n2)c(F)c1 [Example 237, (S)-2-(2,5-difluoro-4-(6-((3-fluoro-5-methylpyridin-2-yl)methoxy)pyridin-2-yl)benzyl)-1-(4,4-dimethyltetrahydrofuran-3-yl)-1H-benzo[d]imidazole-6-carboxylic acid]
14 | 9.90 | CC1(C)COC[C@H]1n1c(Cc2cc(F)c(-c3cccc(OCc4ccc5c(c4)CN(S(C)(=O)=O)C5)n3)cc2F)nc2c(F)cc(C(=O)O)cc21 [Example 240, (S)-2-(2,5-difluoro-4-(6-((2-(methylsulfonyl)isoindolin-5-yl)methoxy)pyridin-2-yl)benzyl)-1-(4,4-dimethyltetrahydrofuran-3-yl)-4-fluoro-1H-benzo[d]imidazole-6-carboxylic acid]
15 | 10.89 | CC1(C)COC[C@H]1n1c(Cc2c(F)cc(-c3cccc(OCc4ccc(-n5ccnn5)cc4F)n3)c(F)c2F)nc2c(F)cc(C(=O)O)cc21 [Example 241, (S)-1-(4,4-dimethyltetrahydrofuran-3-yl)-4-fluoro-2-(2,3,6-trifluoro-4-(6-((2-fluoro-4-(1H-1,2,3-triazol-1-yl)benzyl)oxy)pyridin-2-yl)benzyl)-1H-benzo[d]imidazole-6-carboxylic acid]
16 | 10.70 | CC1(C)COC[C@H]1n1c(Cc2c(F)cc(-c3cccc(OCc4ccc(Cl)cc4F)n3)c(F)c2F)nc2c(F)cc(C(=O)O)cc21 [Example 242, (S)-2-(4-(6-((4-chloro-2-fluorobenzyl)oxy)pyridin-2-yl)-2,3,6-trifluorobenzyl)-1-(4,4-dimethyltetrahydrofuran-3-yl)-4-fluoro-1H-benzo[d]imidazole-6-carboxylic acid]
17 | 10.66 | CC1(C)COC[C@H]1n1c(Cc2c(F)cc(-c3cccc(OCc4ccc(Cl)cc4)n3)c(F)c2F)nc2c(F)cc(C(=O)O)cc21 [Example 243, (S)-2-(4-(6-((4-chlorobenzyl)oxy)pyridin-2-yl)-2,3,6-trifluorobenzyl)-1-(4,4-dimethyltetrahydrofuran-3-yl)-4-fluoro-1H-benzo[d]imidazole-6-carboxylic acid]
18 | 10.82 | CC1(C)COC[C@H]1n1c(Cc2c(F)cc(-c3cccc(OCc4ccc(C#N)cc4)n3)c(F)c2F)nc2c(F)cc(C(=O)O)cc21 [Example 244, (S)-2-(4-(6-((4-cyanobenzyl)oxy)pyridin-2-yl)-2,3,6-trifluorobenzyl)-1-(4,4-dimethyltetrahydrofuran-3-yl)-4-fluoro-1H-benzo[d]imidazole-6-carboxylic acid]
19 | 10.29 | CC1(C)COC[C@H]1n1c(Cc2c(F)cc(-c3cccc(OCc4ccc(C#N)cc4)n3)c(F)c2F)nc2ccc(C(=O)O)cc21 [Example 245, (S)-2-(4-(6-((4-cyanobenzyl)oxy)pyridin-2-yl)-2,3,6-trifluorobenzyl)-1-(4,4-dimethyltetrahydrofuran-3-yl)-1H-benzo[d]imidazole-6-carboxylic acid]
20 | 10.19 | CC1(C)COC[C@H]1n1c(Cc2c(F)cc(-c3cccc(OCc4ccc(Cl)cc4)n3)c(F)c2F)nc2ccc(C(=O)O)cc21 [Example 246, (S)-2-(4-(6-((4-chlorobenzyl)oxy)pyridin-2-yl)-2,3,6-trifluorobenzyl)-1-(4,4-dimethyltetrahydrofuran-3-yl)-1H-benzo[d]imidazole-6-carboxylic acid]
21 | 9.82 | CC1(C)COC[C@H]1n1c(Cc2c(F)cc(-c3cccc(OCc4ccc(Cl)cc4F)n3)c(F)c2F)nc2ccc(C(=O)O)cc21 [Example 247, (S)-2-(4-(6-((4-chloro-2-fluorobenzyl)oxy)pyridin-2-yl)-2,3,6-trifluorobenzyl)-1-(4,4-dimethyltetrahydrofuran-3-yl)-1H-benzo[d]imidazole-6-carboxylic acid]
22 | 9.73 | CC1(C)COC[C@H]1n1c(Cc2cc(F)c(-c3cccc(OCc4ccc5c(c4)CN(S(C)(=O)=O)C5)n3)cc2F)nc2ccc(C(=O)O)cc21 [Example 248, (S)-2-(2,5-difluoro-4-(6-((2-(methylsulfonyl)isoindolin-5-yl)methoxy)pyridin-2-yl)benzyl)-1-(4,4-dimethyltetrahydrofuran-3-yl)-1H-benzo[d]imidazole-6-carboxylic acid]
23 | 9.86 | CC1(C)COC[C@H]1n1c(Cc2cc(F)c(-c3cccc(OCc4ccc(Cl)nc4F)n3)cc2F)nc2ccc(C(=O)O)cc21 [Example 249, (S)-2-(4-(6-((6-chloro-2-fluoropyridin-3-yl)methoxy)pyridin-2-yl)-2,5-difluorobenzyl)-1-(4,4-dimethyltetrahydrofuran-3-yl)-1H-benzo[d]imidazole-6-carboxylic acid]
24 | 10.32 | COCCn1c(Cc2c(F)cc(-c3cccc(OCc4ccc(-n5ccnn5)cc4F)n3)c(F)c2F)nc2c(F)cc(C(=O)O)cc21 [Example 250, 4-fluoro-1-(2-methoxyethyl)-2-(2,3,6-trifluoro-4-(6-((2-fluoro-4-(1H-1,2,3-triazol-1-yl)benzyl)oxy)pyridin-2-yl)benzyl)-1H-benzo[d]imidazole-6-carboxylic acid]
